The values below come from ChEMBL document CHEMBL5465560, “Selectivity Literature for EUbOPEN Chemogenomic Library” (2024).

The structures appear in SMILES notation.

For test [1], the system named is Epidermal growth factor receptor (Homo sapiens), P00533 [L858R]. The following applies: at 10 µM.
The target of test [2] is T1, Dual specificity tyrosine-phosphorylation-regulated kinase 2 (Homo sapiens) (UniProt Q92630).
T1 sequence (whole entry): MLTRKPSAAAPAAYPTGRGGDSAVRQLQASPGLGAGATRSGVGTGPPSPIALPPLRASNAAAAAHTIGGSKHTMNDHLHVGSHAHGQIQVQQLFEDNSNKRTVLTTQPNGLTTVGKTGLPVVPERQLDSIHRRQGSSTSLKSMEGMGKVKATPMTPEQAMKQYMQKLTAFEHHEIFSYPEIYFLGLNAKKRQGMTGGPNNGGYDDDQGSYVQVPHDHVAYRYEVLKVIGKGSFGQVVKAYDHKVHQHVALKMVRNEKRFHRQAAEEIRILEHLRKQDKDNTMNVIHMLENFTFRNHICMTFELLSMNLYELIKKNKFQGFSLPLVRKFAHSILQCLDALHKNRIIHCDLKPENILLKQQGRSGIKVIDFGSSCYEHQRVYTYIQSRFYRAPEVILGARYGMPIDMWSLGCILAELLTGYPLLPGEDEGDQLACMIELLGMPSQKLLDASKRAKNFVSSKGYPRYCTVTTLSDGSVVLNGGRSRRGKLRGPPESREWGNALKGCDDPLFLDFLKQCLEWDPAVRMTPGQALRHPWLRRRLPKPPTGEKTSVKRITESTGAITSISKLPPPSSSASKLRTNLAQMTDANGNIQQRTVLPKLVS
Put plainly: Selectivity interaction (Kinase panel (DSF assay)) EUB0001558a DYRK2.

The target in test [3] is T2, Serine/threonine-protein kinase 17A (Homo sapiens) (UniProt Q9UEE5).
T2 sequence (whole entry): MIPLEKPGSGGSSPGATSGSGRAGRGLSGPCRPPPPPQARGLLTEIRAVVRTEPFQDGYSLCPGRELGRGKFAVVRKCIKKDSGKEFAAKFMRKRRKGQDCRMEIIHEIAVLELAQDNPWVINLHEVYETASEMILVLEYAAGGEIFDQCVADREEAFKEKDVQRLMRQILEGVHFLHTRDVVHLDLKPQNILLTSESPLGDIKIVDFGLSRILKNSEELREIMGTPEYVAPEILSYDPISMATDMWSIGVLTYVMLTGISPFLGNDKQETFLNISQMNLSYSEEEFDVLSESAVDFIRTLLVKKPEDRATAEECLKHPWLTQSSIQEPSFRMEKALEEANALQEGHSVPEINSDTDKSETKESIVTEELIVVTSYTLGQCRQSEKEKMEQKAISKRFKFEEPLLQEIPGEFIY
Nature of the test: Selectivity interaction (KinomeScan (DiscoverX)) EUB0000092b STK17A. The note with it: at 10 µM.

In test [4] the target is T3, Dual specificity protein kinase TTK (Homo sapiens) (UniProt P33981).
T3 sequence (whole entry): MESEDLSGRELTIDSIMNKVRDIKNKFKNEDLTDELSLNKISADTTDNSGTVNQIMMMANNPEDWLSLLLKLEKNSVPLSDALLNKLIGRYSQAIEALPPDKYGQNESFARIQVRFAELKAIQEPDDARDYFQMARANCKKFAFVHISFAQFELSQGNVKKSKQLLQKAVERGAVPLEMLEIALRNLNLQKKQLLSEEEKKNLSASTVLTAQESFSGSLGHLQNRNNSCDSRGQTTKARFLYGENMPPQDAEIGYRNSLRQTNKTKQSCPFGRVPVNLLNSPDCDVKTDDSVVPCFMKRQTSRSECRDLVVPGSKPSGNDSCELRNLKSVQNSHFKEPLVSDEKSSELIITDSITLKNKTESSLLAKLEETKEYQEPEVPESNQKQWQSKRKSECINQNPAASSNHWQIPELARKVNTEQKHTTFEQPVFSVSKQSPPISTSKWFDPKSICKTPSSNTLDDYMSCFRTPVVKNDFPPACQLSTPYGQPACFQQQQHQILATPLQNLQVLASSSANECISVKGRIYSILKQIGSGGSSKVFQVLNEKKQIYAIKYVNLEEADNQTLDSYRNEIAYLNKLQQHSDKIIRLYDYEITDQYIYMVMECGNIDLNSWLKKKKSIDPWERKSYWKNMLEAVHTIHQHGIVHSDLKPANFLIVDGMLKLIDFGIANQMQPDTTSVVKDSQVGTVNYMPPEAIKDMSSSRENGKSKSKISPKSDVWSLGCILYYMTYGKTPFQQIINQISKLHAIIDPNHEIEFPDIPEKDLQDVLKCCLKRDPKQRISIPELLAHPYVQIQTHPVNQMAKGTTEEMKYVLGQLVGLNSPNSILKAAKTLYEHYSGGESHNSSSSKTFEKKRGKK
Put plainly: Selectivity interaction (KinomeScan (DiscoverX)) EUB0000695a TTK. The following applies: at 100 nM.

Test [5] deals with Fibroblast growth factor receptor 3 (Homo sapiens, UniProt P22607). Put plainly: (§1) Selectivity interaction (KinomeScan (DiscoverX)) EUB0000045b FGFR3.
Fibroblast growth factor receptor 3, sequence (P22607 23-806 limits assumed): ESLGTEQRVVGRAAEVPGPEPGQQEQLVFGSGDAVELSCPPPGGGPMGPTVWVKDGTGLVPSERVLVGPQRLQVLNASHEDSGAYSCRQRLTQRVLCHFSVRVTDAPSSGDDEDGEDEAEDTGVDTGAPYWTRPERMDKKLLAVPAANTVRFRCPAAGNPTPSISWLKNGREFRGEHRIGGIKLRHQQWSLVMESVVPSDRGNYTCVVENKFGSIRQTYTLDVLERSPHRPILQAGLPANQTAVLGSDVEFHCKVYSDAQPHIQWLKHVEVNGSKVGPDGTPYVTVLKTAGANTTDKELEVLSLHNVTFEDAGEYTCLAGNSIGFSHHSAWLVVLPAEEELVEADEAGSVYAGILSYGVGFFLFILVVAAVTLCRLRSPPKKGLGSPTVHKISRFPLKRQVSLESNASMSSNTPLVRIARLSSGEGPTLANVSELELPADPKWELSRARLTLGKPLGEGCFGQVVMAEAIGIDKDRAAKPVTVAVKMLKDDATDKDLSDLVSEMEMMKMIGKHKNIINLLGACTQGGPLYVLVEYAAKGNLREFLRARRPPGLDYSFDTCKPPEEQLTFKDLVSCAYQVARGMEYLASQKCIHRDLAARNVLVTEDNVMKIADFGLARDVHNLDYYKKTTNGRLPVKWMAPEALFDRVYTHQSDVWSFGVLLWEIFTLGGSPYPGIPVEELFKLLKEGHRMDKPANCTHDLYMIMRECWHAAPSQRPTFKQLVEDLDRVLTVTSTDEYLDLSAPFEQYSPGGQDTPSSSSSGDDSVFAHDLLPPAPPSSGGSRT
The subject of test [6] is Fibroblast growth factor receptor 3 (Homo sapiens), P22607 [G697C]. Described as §1.
Test [7] has as its target TRAF2 and NCK-interacting protein kinase (Homo sapiens) (UniProt Q9UKE5). Nature of the test: Selectivity interaction (ActivX KiNativ screen (kinase selectivity in THP-1 cell lysates)) EUB0000639a TNIK. Type of test: subcellular. The following applies: lysate.
Test [8] concerns the target Ribosomal protein S6 kinase alpha-1 (Homo sapiens, UniProt Q15418). Put plainly: Selectivity interaction (ActivX KiNativ screen (kinase selectivity in THP-1 cell lysates)) EUB0000639a RPS6KA1. Format: subcellular. The following applies: lysate, at 5 µM.
Test [9] concerns the target Tyrosine-protein kinase Fes/Fps (Homo sapiens) (UniProt P07332). Nature of the test: Selectivity interaction (KinomeScan (DiscoverX)) EUB0000229b FES. The following applies: at 10 µM.
Test [10] concerns the target CDK4/Cyclin D3 (Homo sapiens) (UniProt P11802+P30281). Nature of the test: (§2) Selectivity interaction (KinomeScan (DiscoverX)) EUB0000618a CDK4. Format: protein-complex assay. The note with it: at 10 µM.
Test [11] has as its target Cyclin-dependent kinase 4/cyclin D1 (Homo sapiens) (UniProt P11802+P24385). The description is as §2. Type of test: protein-complex assay. The following applies: at 10 µM.

TRAF2 and NCK-interacting protein kinase (Homo sapiens), sequence (Q9UKE5 whole entry, looked up): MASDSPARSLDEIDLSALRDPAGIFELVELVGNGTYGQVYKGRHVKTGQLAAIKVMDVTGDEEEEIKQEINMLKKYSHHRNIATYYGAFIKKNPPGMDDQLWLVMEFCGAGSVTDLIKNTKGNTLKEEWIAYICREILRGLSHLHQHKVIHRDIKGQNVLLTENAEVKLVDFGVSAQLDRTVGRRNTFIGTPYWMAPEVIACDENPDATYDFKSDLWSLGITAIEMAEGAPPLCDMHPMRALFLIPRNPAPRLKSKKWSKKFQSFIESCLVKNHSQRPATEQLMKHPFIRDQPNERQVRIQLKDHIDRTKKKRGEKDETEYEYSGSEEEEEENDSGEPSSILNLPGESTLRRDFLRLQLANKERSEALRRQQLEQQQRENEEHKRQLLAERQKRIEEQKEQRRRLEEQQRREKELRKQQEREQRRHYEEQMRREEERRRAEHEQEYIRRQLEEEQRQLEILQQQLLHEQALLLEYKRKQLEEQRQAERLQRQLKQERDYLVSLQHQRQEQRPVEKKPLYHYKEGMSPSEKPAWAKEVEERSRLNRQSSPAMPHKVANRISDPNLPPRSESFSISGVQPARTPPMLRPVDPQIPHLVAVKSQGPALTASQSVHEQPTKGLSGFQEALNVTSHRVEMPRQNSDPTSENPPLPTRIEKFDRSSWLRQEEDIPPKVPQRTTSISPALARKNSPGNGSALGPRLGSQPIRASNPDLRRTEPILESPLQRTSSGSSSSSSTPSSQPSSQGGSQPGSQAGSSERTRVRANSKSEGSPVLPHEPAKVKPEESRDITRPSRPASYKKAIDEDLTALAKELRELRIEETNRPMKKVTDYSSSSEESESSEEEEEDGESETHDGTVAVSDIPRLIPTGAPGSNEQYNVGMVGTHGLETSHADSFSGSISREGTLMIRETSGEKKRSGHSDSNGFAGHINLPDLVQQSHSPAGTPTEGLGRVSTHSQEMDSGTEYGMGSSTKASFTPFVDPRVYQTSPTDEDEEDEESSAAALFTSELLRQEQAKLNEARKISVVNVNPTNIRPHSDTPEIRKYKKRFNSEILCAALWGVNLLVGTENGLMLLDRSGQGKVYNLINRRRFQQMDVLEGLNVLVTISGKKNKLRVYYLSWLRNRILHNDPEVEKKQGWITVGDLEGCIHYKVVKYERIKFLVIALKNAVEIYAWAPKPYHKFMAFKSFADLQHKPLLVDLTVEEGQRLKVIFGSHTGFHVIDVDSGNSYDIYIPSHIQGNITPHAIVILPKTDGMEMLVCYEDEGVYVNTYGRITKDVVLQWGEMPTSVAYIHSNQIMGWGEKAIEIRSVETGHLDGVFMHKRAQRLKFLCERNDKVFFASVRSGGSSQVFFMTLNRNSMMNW
Fibroblast growth factor receptor 3 (Homo sapiens), P22607 [G697C], sequence (P22607 whole entry G697C): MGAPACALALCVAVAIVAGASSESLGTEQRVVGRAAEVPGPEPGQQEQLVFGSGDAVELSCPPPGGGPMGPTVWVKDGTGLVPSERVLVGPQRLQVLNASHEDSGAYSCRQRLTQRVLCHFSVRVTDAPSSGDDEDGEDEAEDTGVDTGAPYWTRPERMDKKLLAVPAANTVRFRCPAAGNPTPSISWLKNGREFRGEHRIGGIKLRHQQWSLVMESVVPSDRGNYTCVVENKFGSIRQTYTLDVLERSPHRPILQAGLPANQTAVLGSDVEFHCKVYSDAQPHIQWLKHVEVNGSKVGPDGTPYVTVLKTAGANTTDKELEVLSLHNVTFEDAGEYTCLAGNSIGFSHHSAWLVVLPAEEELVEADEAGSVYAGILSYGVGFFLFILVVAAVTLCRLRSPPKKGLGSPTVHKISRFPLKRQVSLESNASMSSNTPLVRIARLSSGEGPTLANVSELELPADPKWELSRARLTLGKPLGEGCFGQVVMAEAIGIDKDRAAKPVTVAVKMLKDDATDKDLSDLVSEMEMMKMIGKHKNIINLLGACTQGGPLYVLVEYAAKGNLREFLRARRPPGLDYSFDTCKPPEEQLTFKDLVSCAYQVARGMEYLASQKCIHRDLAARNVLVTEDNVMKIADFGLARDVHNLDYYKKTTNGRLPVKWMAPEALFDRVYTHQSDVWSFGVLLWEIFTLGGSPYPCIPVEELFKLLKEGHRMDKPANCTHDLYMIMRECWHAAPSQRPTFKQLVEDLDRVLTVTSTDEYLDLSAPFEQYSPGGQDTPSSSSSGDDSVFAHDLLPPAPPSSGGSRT
Tyrosine-protein kinase Fes/Fps (Homo sapiens), sequence (P07332 whole entry): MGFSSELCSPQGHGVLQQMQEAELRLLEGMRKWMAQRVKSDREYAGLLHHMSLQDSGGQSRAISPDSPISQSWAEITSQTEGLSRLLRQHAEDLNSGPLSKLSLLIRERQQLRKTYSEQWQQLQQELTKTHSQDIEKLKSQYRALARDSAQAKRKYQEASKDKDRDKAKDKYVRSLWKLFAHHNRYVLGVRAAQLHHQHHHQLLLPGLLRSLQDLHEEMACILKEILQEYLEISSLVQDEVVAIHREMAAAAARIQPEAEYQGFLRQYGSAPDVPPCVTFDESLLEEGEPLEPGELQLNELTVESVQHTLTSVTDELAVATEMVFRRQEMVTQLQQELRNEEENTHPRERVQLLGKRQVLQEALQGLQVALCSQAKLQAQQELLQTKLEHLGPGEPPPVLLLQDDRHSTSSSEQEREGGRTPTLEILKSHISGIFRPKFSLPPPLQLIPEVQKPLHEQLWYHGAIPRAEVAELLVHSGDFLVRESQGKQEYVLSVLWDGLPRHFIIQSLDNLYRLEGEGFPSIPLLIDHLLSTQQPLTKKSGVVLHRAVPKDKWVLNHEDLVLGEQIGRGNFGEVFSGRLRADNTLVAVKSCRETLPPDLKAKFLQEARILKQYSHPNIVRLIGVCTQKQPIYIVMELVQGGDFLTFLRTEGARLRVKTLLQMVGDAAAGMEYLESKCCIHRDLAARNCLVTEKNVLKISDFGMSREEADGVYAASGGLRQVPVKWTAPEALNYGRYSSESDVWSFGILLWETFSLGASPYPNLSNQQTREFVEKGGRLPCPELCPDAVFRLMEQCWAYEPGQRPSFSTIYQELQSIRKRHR
Ribosomal protein S6 kinase alpha-1, sequence (Q15418 whole entry): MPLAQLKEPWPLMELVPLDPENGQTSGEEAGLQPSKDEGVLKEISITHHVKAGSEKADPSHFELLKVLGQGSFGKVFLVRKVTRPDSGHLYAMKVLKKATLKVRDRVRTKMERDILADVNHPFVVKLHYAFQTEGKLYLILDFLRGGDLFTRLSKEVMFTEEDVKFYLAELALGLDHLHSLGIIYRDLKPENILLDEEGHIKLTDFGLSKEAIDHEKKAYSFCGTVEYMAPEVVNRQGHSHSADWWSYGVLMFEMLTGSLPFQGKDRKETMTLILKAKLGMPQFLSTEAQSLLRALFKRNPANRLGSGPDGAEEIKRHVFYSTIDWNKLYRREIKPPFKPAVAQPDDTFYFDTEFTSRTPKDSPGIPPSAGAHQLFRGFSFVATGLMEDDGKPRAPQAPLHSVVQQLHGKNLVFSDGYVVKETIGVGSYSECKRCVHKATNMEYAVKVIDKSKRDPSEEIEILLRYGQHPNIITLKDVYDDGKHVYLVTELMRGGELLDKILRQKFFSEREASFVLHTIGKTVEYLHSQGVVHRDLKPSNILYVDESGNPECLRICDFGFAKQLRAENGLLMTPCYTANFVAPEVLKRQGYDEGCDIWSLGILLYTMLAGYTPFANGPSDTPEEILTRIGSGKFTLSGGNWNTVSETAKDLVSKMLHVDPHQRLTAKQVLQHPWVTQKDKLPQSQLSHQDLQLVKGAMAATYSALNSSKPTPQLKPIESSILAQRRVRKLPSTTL

As for `Cc1cc([C@@H](C)Nc2ccccc2C(=O)O)c2nc(N3CCOCC3)cc(=O)n2c1` [AZD-6482], the % of control in test [1] was 100%.

On to `CC(C)(O)[C@H](F)CN1Cc2cc(NC(=O)c3cnn4cccnc34)c(N3CCOCC3)cc2C1=O`, for which the dTM in test [2] was 5 K.

`CCC(=O)N1CCN(c2ccc(-n3c(=O)ccc4cnc5ccc(-c6cnc7ccccc7c6)cc5c43)cc2C(F)(F)F)CC1` came in with a % of control in test [3] of 93%.

In the case of `Cc1cc(F)c(C(=O)Nc2cccc(-c3nncn3C(C)C)n2)cc1-n1cnc(C2CC2)c1`, the % of control in test [4] stood at 87%.

On to `C=CC(=O)Nc1cc(-n2c(=O)ccc3cnc4ccc(-c5ccc(NS(C)(=O)=O)cc5)cc4c32)ccc1C`, for which the % of control was 100% in test [5] (at 1 µM), 100% in [5] (at 10 µM), 26% in test [6] (at 1 µM) and 96% in test [6] (at 10 µM).

With `CC[C@@H]1[C@H](F)C(=O)N[C@@H]1COc1nccc2cc(C(N)=O)c(OC)cc12` [ZIMLOVISERTIB], the % of inhibition in [7] (at 0.01 µM) is -2.8%; in test [7] (at 0.04 µM), -2.7%; in test [7] (at 0.2 µM) it was -20.6%; in test [7] (at 1 µM), -28.3%; in [7] (at 5 µM), 16.1%; in [8], 21.5%.

`COc1cc(N(C)c2ccnc3ccc(C(F)(F)F)cc23)cc(OC)c1OC` displayed a % binding in test [9] of 100%.

In the case of `O[C@H]1CC[C@H](Nc2ncc3nc(Nc4c(F)cc(F)cc4F)n([C@H]4CCOC4)c3n2)CC1`, the % of control in test [10] stood at 80%; in test [11], 100%.
